ChEMBL document CHEMBL3885861, “Open TG-GATES”

Species on record: Rattus norvegicus
Assay: Open TG-GATES - Regimen: Single
Assay type: toxicity, organism-based, Sprague-Dawley
Design: regimen Single, gender Male, age 6 weeks
Settings: in vivo, po, 30 mg/kg, route gavage, dose level Middle; for APTT / Bas / Eos / Fbg / Hb / Ht / Lym / MCH / MCHC / MCV / Mono / Neu / PT / Plat / RBC / Ret / WBC: tissue Blood; for KIDNEY_L / KIDNEY_R / KIDNEY_TOTAL: tissue Kidney; for LIVER: tissue Liver; for A/G / ALP / ALT / AST / BUN / CRE / Ca / Cl / DBIL / GLC / IP / K / LDH / Na / PL / RALB / TBIL / TC / TG / TP / gamma-GTP: tissue Plasma

OCCOCCN1CCN(C(c2ccccc2)c2ccc(Cl)cc2)CC1 (configuration not stated) [HYDROXYZINE]
TERMINAL_BW (3 h): 193.6 g | APTT (3 h): 15.6 s | Bas (3 h): 0.2% | Eos (3 h): 0.8% | Fbg (3 h): 288.4 mg/dL | Hb (3 h): 13 g/dL | Ht (3 h): 40.6% | Lym (3 h): 75.4% | MCH (3 h): 21.5 pg | MCHC (3 h): 31.9% | MCV (3 h): 67.3 fL | Mono (3 h): 3.4% | Neu (3 h): 19.6% | PT (3 h): 15.6 s | Plat (3 h): 107 x10_4/uL | RBC (3 h): 604.4 x10_4/ul | Ret (3 h): 8.9% | WBC (3 h): 83.3 x10_2/uL | KIDNEY_L (3 h): 0.9 g | KIDNEY_R (3 h): 0.9 g | KIDNEY_TOTAL (3 h): 1.8 g | LIVER (3 h): 8.7 g | A/G (3 h): 0.8 | ALP (3 h): 1908.4 IU/L | ALT (3 h): 42.4 IU/L | AST (3 h): 74.8 IU/L | BUN (3 h): 9.2 mg/dL | CRE (3 h): 0.2 mg/dL | Ca (3 h): 10.9 mg/dL | Cl (3 h): 106.2 meq/L | DBIL (3 h): 0.012 mg/dL | GLC (3 h): 173.4 mg/dL | IP (3 h): 9.1 mg/dL | K (3 h): 4.4 meq/L | LDH (3 h): 76 IU/L | Na (3 h): 142 meq/L | PL (3 h): 140 mg/dL | RALB (3 h): 2.5 g/dL | TBIL (3 h): 0.058 mg/dL | TC (3 h): 78.6 mg/dL | TG (3 h): 33.2 mg/dL | TP (3 h): 5.4 g/dL | gamma-GTP (3 h): 1 IU/L | TERMINAL_BW (6 h): 192 g | APTT (6 h): 15.5 s | Bas (6 h): 0.2% | Eos (6 h): 0.6% | Fbg (6 h): 289.4 mg/dL | Hb (6 h): 12.9 g/dL | Ht (6 h): 39.9% | Lym (6 h): 78.8% | MCH (6 h): 21.4 pg | MCHC (6 h): 32.2% | MCV (6 h): 66.4 fL | Mono (6 h): 3% | Neu (6 h): 16.8% | PT (6 h): 15.1 s | Plat (6 h): 115.9 x10_4/uL | RBC (6 h): 601.6 x10_4/ul | Ret (6 h): 8.8% | WBC (6 h): 67.5 x10_2/uL | KIDNEY_L (6 h): 0.9 g | KIDNEY_R (6 h): 0.9 g | KIDNEY_TOTAL (6 h): 1.8 g | LIVER (6 h): 8.4 g | A/G (6 h): 0.9 | ALP (6 h): 1397.6 IU/L | ALT (6 h): 38.8 IU/L | AST (6 h): 73.6 IU/L | BUN (6 h): 8.4 mg/dL | CRE (6 h): 0.2 mg/dL | Ca (6 h): 10.9 mg/dL | Cl (6 h): 105.8 meq/L | DBIL (6 h): 0.01 mg/dL | GLC (6 h): 180.4 mg/dL | IP (6 h): 10.5 mg/dL | K (6 h): 4.3 meq/L | LDH (6 h): 69.2 IU/L | Na (6 h): 142.6 meq/L | PL (6 h): 141.8 mg/dL | RALB (6 h): 2.5 g/dL | TBIL (6 h): 0.064 mg/dL | TC (6 h): 83.2 mg/dL | TG (6 h): 40.6 mg/dL | TP (6 h): 5.5 g/dL | gamma-GTP (6 h): 0.8 IU/L | TERMINAL_BW (9 h): 190.8 g | APTT (9 h): 15.9 s | Bas (9 h): 0% | Eos (9 h): 0.8% | Fbg (9 h): 281.8 mg/dL | Hb (9 h): 12.9 g/dL | Ht (9 h): 40% | Lym (9 h): 79% | MCH (9 h): 21.7 pg | MCHC (9 h): 32.3% | MCV (9 h): 67.1 fL | Mono (9 h): 2.6% | Neu (9 h): 17.2% | PT (9 h): 15.4 s | Plat (9 h): 104.8 x10_4/uL | RBC (9 h): 595.6 x10_4/ul | Ret (9 h): 8.8% | WBC (9 h): 60.3 x10_2/uL | KIDNEY_L (9 h): 0.9 g | KIDNEY_R (9 h): 0.9 g | KIDNEY_TOTAL (9 h): 1.7 g | LIVER (9 h): 8.2 g | A/G (9 h): 0.9 | ALP (9 h): 1266.8 IU/L | ALT (9 h): 38 IU/L | AST (9 h): 70.2 IU/L | BUN (9 h): 9 mg/dL | CRE (9 h): 0.2 mg/dL | Ca (9 h): 10.7 mg/dL | Cl (9 h): 107 meq/L | DBIL (9 h): 0.01 mg/dL | GLC (9 h): 171.6 mg/dL | IP (9 h): 10.2 mg/dL | K (9 h): 4 meq/L | LDH (9 h): 83.6 IU/L | Na (9 h): 142.8 meq/L | PL (9 h): 127.8 mg/dL | RALB (9 h): 2.5 g/dL | TBIL (9 h): 0.06 mg/dL | TC (9 h): 67.6 mg/dL | TG (9 h): 43 mg/dL | TP (9 h): 5.4 g/dL | gamma-GTP (9 h): 1 IU/L | TERMINAL_BW (24 h): 210 g | APTT (24 h): 16.7 s | Bas (24 h): 0.2% | Eos (24 h): 0.8% | Fbg (24 h): 268 mg/dL | Hb (24 h): 12.7 g/dL | Ht (24 h): 39.4% | Lym (24 h): 74.6% | MCH (24 h): 21.3 pg | MCHC (24 h): 32.3% | MCV (24 h): 65.9 fL | Mono (24 h): 3.8% | Neu (24 h): 20.4% | PT (24 h): 16.1 s | Plat (24 h): 122 x10_4/uL | RBC (24 h): 599.2 x10_4/ul | Ret (24 h): 8% | WBC (24 h): 75.2 x10_2/uL | KIDNEY_L (24 h): 0.9 g | KIDNEY_R (24 h): 0.9 g | KIDNEY_TOTAL (24 h): 1.8 g | LIVER (24 h): 10.1 g | A/G (24 h): 0.8 | ALP (24 h): 1659 IU/L | ALT (24 h): 45.8 IU/L | AST (24 h): 68.6 IU/L | BUN (24 h): 14 mg/dL | CRE (24 h): 0.2 mg/dL | Ca (24 h): 11.2 mg/dL | Cl (24 h): 106.6 meq/L | DBIL (24 h): 0.018 mg/dL | GLC (24 h): 188.2 mg/dL | IP (24 h): 7.9 mg/dL | K (24 h): 4.1 meq/L | LDH (24 h): 75.2 IU/L | Na (24 h): 142.8 meq/L | PL (24 h): 153.4 mg/dL | RALB (24 h): 2.6 g/dL | TBIL (24 h): 0.054 mg/dL | TC (24 h): 79.2 mg/dL | TG (24 h): 82 mg/dL | TP (24 h): 5.6 g/dL | gamma-GTP (24 h): 1 IU/L
